Test results as given in patent US20120190669A1, “OXINDOLE COMPOUNDS” (CYLENE PHARMACEUTICALS, INC., priority 2008, published 2012).

Each molecule was assayed against recombinant PIM-1 (Homo sapiens, UniProt P11309) (assay: PIM-1 kinase assay (radiometric, 15 uM ATP, DMSO 4%)). Conditions: Table 1; % inhibition at the high dose (2 micromolar) in a single screening assay; 15 μM ATP.
Type: biochemical
Procedure: The following procedure was used to assay the PIM-1 kinase activity of compounds of the invention. Other methods for assaying PIM-1 and other PIM kinases, as well as methods to assay for activity against the various kinases in FIG. 1, are known in the art.
(specific activity approx. 500 cpm/pmol), DMSO 4% and test inhibitor compound at the required concentration. The reaction was initiated by the addition of the Magnesium ATP mixture. After 40 min incubation at 23° C., the reactions were quenched by the addition of 100 ul 0.75% Phosphoric acid, and the labeled peptide collected by filtration through a phosphocellulose filter plate. The plate was washed 4 times with 0.075% phosphoric acid (100 ul per well) and then, after the addition of scintillation fluid (20 ul per well), the counts were measured by a scintillation counter.

Sequence of recombinant PIM-1 (P11309 whole entry): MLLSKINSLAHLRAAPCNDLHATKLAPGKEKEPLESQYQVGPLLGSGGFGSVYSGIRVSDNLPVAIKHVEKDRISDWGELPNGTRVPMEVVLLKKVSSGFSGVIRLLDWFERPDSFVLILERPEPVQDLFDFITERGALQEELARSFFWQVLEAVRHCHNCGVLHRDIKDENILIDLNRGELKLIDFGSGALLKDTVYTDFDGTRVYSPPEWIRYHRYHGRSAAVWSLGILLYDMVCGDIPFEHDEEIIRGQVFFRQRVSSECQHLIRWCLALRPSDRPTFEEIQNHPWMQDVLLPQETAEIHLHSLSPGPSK

In order of falling inhibition at 2 µM:
1. COCCNC(=O)c1cccc(-c2ccc(/C=C3/C(=O)Nc4ccc(F)cc43)o2)c1 [Compound 17]  49.6%
2. O=C1Nc2ccc(F)cc2/C1=C\c1ccc(-c2cccc(C(=O)NC3CC3)c2)o1 [Compound 20]  46%
3. Cc1cnc(CNC(=O)c2cccc(-c3ccc(/C=C4/C(=O)Nc5ccc(F)cc54)o3)c2)cn1 [Compound 18]  42.3%
4. O=C1Nc2ccc(F)cc2/C1=C\c1ccc(-c2cccc(C(=O)N3CCOCC3)c2)o1 [Compound 19]  42.2%
5. O=C1Nc2ccc(C(=O)NC3CC3)cc2/C1=C\c1ccc(-c2cccc(C(=O)NCCN3CCCC3)c2)o1 [Compound 9]  37.2%
6. CN(C)CCNC(=O)c1cc(-c2ccc(/C=C3/C(=O)Nc4ccccc43)o2)ccc1Cl [Compound 24]  36.7%
7. CN1CCCCC1CNC(=O)c1cccc(-c2ccc(/C=C3/C(=O)Nc4cc(F)ccc43)o2)c1 (stereo not drawn) [Compound 40]  33.9%
8. COCCNC(=O)c1ccc2c(c1)/C(=C\c1ccc(-c3cccc(C(=O)NCCN4CCCC4)c3)o1)C(=O)N2 [Compound 7]  32.7%
9. O=C1Nc2ccc(Cl)cc2/C1=C\c1ccc(-c2cccc(C(=O)NCCN3CCCC3)c2)o1 [Compound 43]  32.7%
10. O=C1Nc2ccc(C(=O)O)cc2/C1=C\c1ccc(-c2cccc(C(=O)NCCN3CCCC3)c2)o1 [Compound 6]  32.3%
11. CN1C(=O)/C(=C/c2ccc(-c3cccc(C(=O)O)c3)o2)c2ccccc21 [Compound 2]  31.6%
12. CN1CCCC(NC(=O)c2cc(-c3ccc(/C=C4/C(=O)Nc5ccc(F)cc54)o3)ccc2Cl)C1 (stereo not drawn) [Compound 70]  27.6%
13. CN1CCCCC1CNC(=O)c1cccc(-c2ccc(/C=C3/C(=O)Nc4ccc([N+](=O)[O-])cc43)o2)c1 (stereo not drawn) [Compound 53]  23.5%
14. O=C1Nc2ccc(C(F)(F)F)cc2/C1=C\c1ccc(-c2cccc(C(=O)NCCN3CCCC3)c2)o1 [Compound 47]  22.9%
15. O=C1Nc2cc(F)ccc2/C1=C\c1ccc(-c2cccc(C(=O)NCCN3CCCC3)c2)o1 [Compound 39]  21%
16. O=C1Nc2ccc([N+](=O)[O-])cc2/C1=C\c1ccc(-c2cccc(C(=O)NCCN3CCCC3)c2)o1 [Compound 52]  20.4%
17. O=C1Nc2c(Cl)cccc2/C1=C\c1ccc(-c2cccc(C(=O)NCCN3CCCC3)c2)o1 [Compound 41]  19%
18. CN1CCC(N(C)C(=O)c2ccccc2-c2ccc(/C=C3/C(=O)Nc4ccc(F)cc43)o2)C1 (stereo not drawn) [Compound 64]  18.2%
19. CN1CCCC(NC(=O)c2ccccc2-c2ccc(/C=C3/C(=O)Nc4ccccc43)o2)C1 (stereo not drawn) [Compound 56]  13.8%
20. O=C1Nc2ccc(C(=O)NCc3ccccc3)cc2/C1=C\c1ccc(-c2cccc(C(=O)NCCN3CCCC3)c2)o1 [Compound 8]  11.5%
21. O=C1Nc2ccccc2/C1=C\c1ccc(-c2ccccc2C(=O)O)o1 [Compound 31]  11.4%
22. CCN(CC)CCNC(=O)c1ccccc1-c1ccc(/C=C2/C(=O)Nc3ccc(F)cc32)o1 [Compound 68]  11.2%
23. CCN1CCCC1CNC(=O)c1cccc(-c2ccc(/C=C3/C(=O)Nc4ccccc43)o2)c1 (stereo not drawn) [Compound 57]  10.6%
24. CN1CCCC(NC(=O)c2ccccc2-c2ccc(/C=C3/C(=O)Nc4ccc(F)cc43)o2)C1 (stereo not drawn) [Compound 63]  10.3%
25. CN1CCCCC1CNC(=O)c1cccc(-c2ccc(/C=C3/C(=O)Nc4c(Cl)cccc43)o2)c1 (stereo not drawn) [Compound 42]  9.73%
26. CN(C)C1CCN(C(=O)c2ccccc2-c2ccc(/C=C3/C(=O)Nc4ccc(F)cc43)o2)CC1 [Compound 67]  8.84%
27. O=C1Nc2c(cccc2C(F)(F)F)/C1=C\c1ccc(-c2cccc(C(=O)NCCN3CCCC3)c2)o1 [Compound 50]  8.16%
28. CN1CCC(N(C)C(=O)c2ccccc2-c2ccc(/C=C3/C(=O)Nc4ccccc43)o2)C1 (stereo not drawn) [Compound 58]  7.15%
29. O=C1Nc2ccccc2/C1=C\c1ccc(-c2ccc(Cl)c(C(=O)NCCN3CCCC3)c2)o1 [Compound 11]  5.6%
30. CCN1CCCC1CNC(=O)c1cc(-c2ccc(/C=C3/C(=O)Nc4ccc(F)cc43)o2)ccc1Cl (stereo not drawn) [Compound 71]  5.32%
31. CN1CCCCC1CNC(=O)c1ccccc1-c1ccc(/C=C2/C(=O)Nc3ccc(F)cc32)o1 (stereo not drawn) [Compound 66]  4.53%
32. O=C1Nc2ccccc2/C1=C\c1ccc(-c2ccccc2C(=O)NCCN2CCCC2)o1 [Compound 54]  3.52%
33. CN(CCN1CCCC1)C(=O)c1ccccc1-c1ccc(/C=C2/C(=O)Nc3ccccc32)o1 [Compound 55]  2.91%
34. O=C1Nc2cc(C(F)(F)F)ccc2/C1=C\c1ccc(-c2cccc(C(=O)NCCN3CCCC3)c2)o1 [Compound 49]  2.7%
35. CN1CCCCC1CNC(=O)c1cccc(-c2ccc(/C=C3/C(=O)Nc4c3cccc4C(F)(F)F)o2)c1 (stereo not drawn) [Compound 51]  2.32%
36. CN1CCCCC1CNC(=O)c1ccccc1-c1ccc(/C=C2/C(=O)Nc3ccccc32)o1 (stereo not drawn) [Compound 60]  0.33%
37. O=C1Nc2ccc(F)cc2/C1=C\c1ccc(-c2ccccc2C(=O)NCCN2CCCC2)o1 [Compound 62]  0.28%
38. CN1CCCCC1CNC(=O)c1cccc(-c2ccc(/C=C3/C(=O)Nc4ccc(C#N)cc43)o2)c1 (stereo not drawn) [Compound 46]  -0.36%
39. Cn1cncc1CNC(=O)c1ccccc1-c1ccc(/C=C2/C(=O)Nc3ccc(F)cc32)o1 [Compound 65]  -2.39%
40. CN(C)C1CCN(C(=O)c2ccccc2-c2ccc(/C=C3/C(=O)Nc4ccccc43)o2)CC1 [Compound 61]  -2.65%
41. Cn1cncc1CNC(=O)c1ccccc1-c1ccc(/C=C2/C(=O)Nc3ccccc32)o1 [Compound 59]  -4.35%
42. CN1CCCCC1CNC(=O)c1cccc(-c2ccc(/C=C3/C(=O)Nc4ccc(C(F)(F)F)cc43)o2)c1 (stereo not drawn) [Compound 48]  -4.56%
43. COC(=O)c1ccccc1-c1ccc(/C=C2/C(=O)Nc3ccc(F)cc32)o1 [Compound 30]  -6.8%
44. CN1CCCCC1CNC(=O)c1cccc(-c2ccc(/C=C3/C(=O)Nc4ccc(Cl)cc43)o2)c1 (stereo not drawn) [Compound 44]  -9.22%
45. O=C1CN(C(=O)c2cccc(-c3ccc(/C=C4/C(=O)Nc5ccccc54)o3)c2)CCN1 [Compound 23]  -14.2%
46. CN1CC(NC(=O)c2cc(-c3ccc(/C=C4/C(=O)Nc5ccccc54)o3)ccc2Cl)C1 [Compound 25]  -15.8%
47. CN1CCC(NC(=O)c2cc(-c3ccc(/C=C4/C(=O)Nc5ccccc54)o3)ccc2Cl)CC1 [Compound 27]  -16.9%
48. CN1CCN(C(=O)c2cc(-c3ccc(/C=C4/C(=O)Nc5ccccc54)o3)ccc2Cl)CC1 [Compound 26]  -18.8%
49. CN1CCCCC1CNC(=O)c1cccc(-c2ccc(/C=C3/C(=O)Nc4cccc(Br)c43)o2)c1 (stereo not drawn) [Compound 45]  -21.9%
50. O=C1Nc2ccccc2/C1=C\c1ccc(-c2ccc(Cl)c(C(=O)NCC3CCCN3)c2)o1 (stereo not drawn) [Compound 29]  -33.4%
51. O=C1Nc2ccccc2/C1=C\c1ccc(-c2ccc(Cl)c(C(=O)NCCC3CCCN3)c2)o1 (stereo not drawn) [Compound 28]  -37.6%

With O=C1Nc2ccc(F)cc2/C1=C\c1ccc(-c2ccc(Cl)c(C(=O)NCCN3CCCC3)c2)o1 [Compound 12] the “PIM-1 Inhibition @ 15 μM ATP” value was 35.20%.

Same assay, conditions: Table 1; given for compounds with IC50 at or below 2 micromolar; 15 uM ATP; read-out: PIM-1 IC50

CCN(CC)CCNC(=O)c1cccc(-c2ccc(/C=C3/C(=O)Nc4ccccc43)o2)c1 [Compound 4] and Cn1cncc1CNC(=O)c1ccc(-c2ccc(/C=C3/C(=O)Nc4ccccc43)o2)cc1 [Compound 36] cannot be ordered by IC50: less than 1000 nM for the first, less than 1000 nM for the second.

COC(=O)c1ccc2c(c1)/C(=C\c1ccc(-c3cccc(C(=O)NCCN4CCCC4)c3)o1)C(=O)N2 [Compound 5] and O=C1Nc2ccc(F)cc2/C1=C\c1ccc(-c2cc(C(=O)NCCN3CCCC3)ccc2Cl)o1 [Compound 13] cannot be ordered by IC50: less than 1000 nM for the first, less than 2000 nM for the second.

O=C1Nc2ccc(F)cc2/C1=C\c1ccc(-c2cccc(C(=O)O)c2)o1 [Compound 10] and Cn1cncc1CNC(=O)c1cccc(-c2ccc(/C=C3/C(=O)Nc4ccc(F)cc43)o2)c1 [Compound 22] cannot be ordered by IC50: less than 2000 nM for the first, less than 1000 nM for the second.

O=C1Nc2ccccc2/C1=C\c1ccc(-c2cc(C(=O)NCCN3CCCC3)ccc2Cl)o1 [Compound 14] and CN(CCN1CCCC1)C(=O)c1ccc(-c2ccc(/C=C3/C(=O)Nc4ccccc43)o2)cc1 [Compound 34] cannot be ordered by IC50: less than 2000 nM for the first, less than 1000 nM for the second.

O=C1Nc2ccc(F)cc2/C1=C\c1ccc(-c2cccc(C(=O)NCc3ccncc3)c2)o1 [Compound 21] and CCN1CCCC1CNC(=O)c1ccc(-c2ccc(/C=C3/C(=O)Nc4ccccc43)o2)cc1 (stereo not drawn) [Compound 32] cannot be ordered by IC50: less than 2000 nM for the first, less than 1000 nM for the second.

CN1CCCC1N(C)C(=O)c1ccc(-c2ccc(/C=C3/C(=O)Nc4ccccc43)o2)cc1 (stereo not drawn) [Compound 33] and CN1CCCC(NC(=O)c2ccc(-c3ccc(/C=C4/C(=O)Nc5ccccc54)o3)cc2)C1 (stereo not drawn) [Compound 35] cannot be ordered by IC50: less than 1000 nM for the first, less than 1000 nM for the second.

CN1CCCCC1CNC(=O)c1ccc(-c2ccc(/C=C3/C(=O)Nc4ccccc43)o2)cc1 (stereo not drawn) [Compound 37] and CN(C)C1CCN(C(=O)c2ccc(-c3ccc(/C=C4/C(=O)Nc5ccccc54)o3)cc2)CC1 [Compound 38] cannot be ordered by IC50: less than 2000 nM for the first, less than 2000 nM for the second.

Same assay, conditions: Table 3; DMSO 4%; read-out: PIM1: IC50 (DMSO 4%)

Compared with CN1CCCN(C(=O)c2cccc(-c3ccc(/C(=C4/C(=O)Nc5ccc(Cl)cc54)C4CC4)o3)c2)CC1, CN1CCCN(C(=O)c2ccc(Cl)c(-c3ccc(/C=C4/C(=O)Nc5ccc(F)cc54)o3)c2)CC1 is lower in IC50: greater than 1100 nM for the first, less than 1000 nM for the second. The second is the more potent here.

CN1CCN(c2ccc(-c3ccc(/C=C4\C(=O)Nc5ccc(Cl)cc54)o3)cn2)CC1 showed an IC50 of less than 1000 nM.
